From patent US12583815B2, “Inhibitors of YAP/TAZ-TEAD oncoproteins, synthesis and use thereof” (BRIDGENE BIOSCIENCES, INC., priority 2020, dated 2026) come the findings set out here.

This assay concerns the target T1, TEAD1 (Homo sapiens, UniProt P28347).
T1 construct: endogenous in cells; host or cells: MCF-7
The assay is described as follows: TEAD1-Luciferase reporter assay (MCF-7 cell-based TEAD1-Luc assay). The following applies: cells treated with compound overnight, luciferase chemiluminescence readout. The protocol:
TEAD1-Luciferase Reporter Assay to Characterize the Pharmacological Properties of the Tead1 Covalent Inhibitors
FIG. 1 is a schematic illustration of the mechanism of TEAD1 inhibition by the disclosed compounds, which is the theoretical basis for the development of a TEAD-YAP/TAZ cell-based functional assay to characterize the pharmacological properties of the synthesized inhibitor compounds. The MCF-7 cell-based TEAD1-Luc assay for the IC50 measurement was performed as below. Compounds 2, 4, 5, and 7, representing different chemical scaffolds, were characterized. About 200 μL of culture medium was placed in each of the 10^4 cell/well in a 96-well plate. The next day the cells were treated with the synthesized compounds for overnight. The luciferase activity was measured with a chemiluminescent assay kit. Specifically, the plate was equilibrated at room temperature. […] and 50 μL of the medium was left inside. To each well was added 50 μL Luciferase reagents. The plates were gently rocked for more than about 15 minutes at room temperature. The luminescence signal was then read and recorded. Table 2 below summarizes the measured IC50 values for the disclosed compounds.
(Reporter assays use an easily measured gene product as a stand-in for the process of interest.)

In general, IC50 refers to the concentration that gives 50% inhibition.

T1 sequence (P28347 whole entry): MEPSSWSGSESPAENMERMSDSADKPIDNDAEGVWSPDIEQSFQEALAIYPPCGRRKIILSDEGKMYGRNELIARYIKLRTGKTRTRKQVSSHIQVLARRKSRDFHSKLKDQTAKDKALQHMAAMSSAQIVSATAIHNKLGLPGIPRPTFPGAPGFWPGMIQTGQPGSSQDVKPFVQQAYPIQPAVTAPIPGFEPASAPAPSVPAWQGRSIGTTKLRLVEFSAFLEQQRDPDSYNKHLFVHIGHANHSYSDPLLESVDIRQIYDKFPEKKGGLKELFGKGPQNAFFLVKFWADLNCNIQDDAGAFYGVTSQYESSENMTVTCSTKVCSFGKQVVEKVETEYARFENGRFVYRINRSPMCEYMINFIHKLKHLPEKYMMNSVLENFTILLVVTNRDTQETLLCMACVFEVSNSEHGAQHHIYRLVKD

In the case of `C=CC(=O)Nc1ccc2c(c1)CCN(CCCCC)C2=O` [Compound 50, N-(1-oxo-2-pentyl-1,2,3,4-tetrahydroisoquinolin-6-yl)acrylamide], the IC50 was 100 to 5000 nM.

For the molecule `C=CC(=O)Nc1ccc(-c2cc(C(F)(F)F)ccn2)cc1` [Compound 51, N-(4-(4-(trifluoromethyl)pyridin-2-yl)phenyl)acrylamide], the IC50 lay in the range of 100 to 5000 nM.

For `C=CC(=O)Nc1ccc(-c2cncc(C(F)(F)F)c2)cc1` [Compound 52, N-(4-(5-(trifluoromethyl)pyridin-3-yl)phenyl)acrylamide], the IC50 was no more than 100 nM.

Turning to `C=CC(=O)Nc1ccc(-c2cc(C(F)(F)F)cnn2)cc1` [Compound 53, N-(4-(5-(trifluoromethyl)pyridazin-3-yl)phenyl)acrylamide], the IC50 was 100 to 5000 nM.

For the molecule `C=CC(=O)Nc1ccc(-c2cc(C(F)(F)F)sn2)cc1` [Compound 54, N-(4-(5-(trifluoromethyl)isothiazol-3-yl)phenyl)acrylamide], the IC50 was no more than 100 nM.

`C=CC(=O)Nc1ccc(-c2ccn(CC(F)(F)F)n2)cc1` [Compound 55, N-(4-(1-(2,2,2-trifluoroethyl)-1H-pyrazol-3-yl)phenyl)acrylamide]: the IC50 lay in the range of 100 to 5000 nM.

Consider `C=CC(=O)N1CC(Oc2ccc(C(F)(F)F)cc2)C1` [Compound 56, 1-(3-(4-(trifluoromethyl)phenoxy)azetidin-1-yl)prop-2-en-1-one], for which the IC50 was 100 to 5000 nM.

For the molecule `C=CC(=O)NC1CC(COc2cccc(C(F)(F)F)c2)C1` (stereo not drawn) [Compound 58, N-(3-((3-(trifluoromethyl)phenoxy)methyl)cyclobutyl)acrylamide], the IC50 was no more than 100 nM.

In the case of `C=CC(=O)N1CC(Cc2ccc(C(F)(F)F)cc2)C1` [Compound 59, 1-(3-(4-(trifluoromethyl)benzyl)azetidin-1-yl)prop-2-en-1-one], the IC50 was 100 to 5000 nM.

With `C=CC(=O)N1CC(NCc2cccc(C(F)(F)F)c2)C1` [Compound 60, 1-(3-((3-(trifluoromethyl)benzyl)amino)azetidin-1-yl)prop-2-en-1-one], the 50% inhibitory concentration (IC50) lay in the range of 100 to 5000 nM.

In the case of `C=CC(=O)NC1CC(OCc2cccc(C(F)(F)F)c2)C1` (stereo not drawn) [Compound 61, N-(3-((3-(trifluoromethyl)benzyl)oxy)cyclobutyl)acrylamide], the IC50 was no more than 100 nM.

Consider `C=CC(=O)NC12CC(COc3cccc(C(F)(F)F)c3)(C1)C2` [Compound 62, N-(3-((3-(trifluoromethyl)phenoxy)methyl)bicyclo[1.1.1]pentan-1-yl)acrylamide], for which the IC50 was no more than 100 nM.

On to `C=CC(=O)NC1CC2(CC(NCc3cccc(C(F)(F)F)c3)C2)C1` (stereo not drawn) [Compound 63, N-(6-((3-(trifluoromethyl)benzyl)amino)spiro[3.3]heptan-2-yl)acrylamide], for which the IC50 was no more than 100 nM.

As to `C=CC(=O)NC1CC2(C1)CC(Oc1cccc(C(F)(F)F)c1)C2` (stereo not drawn) [Compound 64, N-(6-(3-(trifluoromethyl)phenoxy)spiro[3.3]heptan-2-yl)acrylamide], the IC50 was no less than 5000 nM.

`C=CC(=O)Nc1ccc(-c2cc(C(C)(C)C)on2)cc1` [Compound 65, N-(4-(5-(tert-butyl)isoxazol-3-yl)phenyl)acrylamide]: the IC50 fell in the range of 100 to 5000 nM.
